Results reported in ChEMBL document CHEMBL5579843, “Multimechanism biological profiling of tetrahydro-β-carboline analogues as selective HDAC6 inhibitors for the treatment of Alzheimer's disease” (Eur J Med Chem, 2024).
pIC50: −log10 of the molar value. Active and inactive are the calls of the source. No cut-off for these calls is given here.

Experiments:
PC-12 [1] = assay: Neuroprotective activity against H2O2-induced oxidative damage in rat PC-12 cells assessed as increase in catalase protein expression at 10 uM pretreated for 4 hrs followed by H2O2 stimulation and measured after 24 hrs by Western blot analysis; type: functional, cell-based; settings: time 28.0 hrs
[2] = Antioxidant activity assessed as ABTS radical scavenging activity measured after 30 mins by absorbance based analysis; type: functional
PC-12 [3] = assay: Neuroprotective activity against H2O2-induced oxidative damage in rat PC-12 cells assessed as SOD activity at 10 uM pretreated for 4 hrs followed by H2O2 stimulation and measured after 24 hrs by WST-8 assay; type: functional; settings: time 28 hrs
PC-12 [4] = assay: Upregulation of beta-3 tubulin protein expression in rat PC-12 cells measured after 24 hrs by Western blot analysis; type: functional, cell-based; settings: dose 1-10 µM
PC-12 [5] = assay: Neuroprotective activity against H2O2-induced oxidative damage in rat PC-12 cells assessed as reduction in intracellular LDH level by measuring residual activity at 10 uM pretreated for 4 hrs followed by H2O2 stimulation and measured after 24 hrs relative to control; type: functional; settings: time 28 hrs
PC-12 [6] = assay: Neuroprotective activity against H2O2-induced oxidative damage in rat PC-12 cells assessed as inhibition of apoptosis by measuring increase in Bcl-2 protein expression pretreated for 4 hrs followed by H2O2 stimulation and measured after 24 hrs by Western blot analysis; type: functional, cell-based; settings: dose 1-10 µM, time 28.0 hrs
PC-12 [7] = assay: Neuroprotective activity against H2O2-induced oxidative damage in rat PC-12 cells assessed as increase in Prx II protein expression measured after 24 hrs by Western blot analysis; type: functional, cell-based; settings: dose 1-10 µM
PC-12 [8] = assay: Neuroprotective activity against H2O2-induced oxidative damage in rat PC-12 cells assessed as inhibition of apoptosis by measuring decrease in PARP protein expression pretreated for 4 hrs followed by H2O2 stimulation and measured after 24 hrs by Western blot analysis; type: functional, cell-based; settings: dose 1-10 µM, time 28.0 hrs
PC-12 [9] = assay: Upregulation of GAP-43 protein expression in rat PC-12 cells measured after 24 hrs by Western blot analysis; type: functional, cell-based; settings: dose 1-10 µM
PC-12 [10] = assay: (§1) Neuroprotective activity against H2O2-induced oxidative damage in rat PC-12 cells assessed as inhibition of apoptosis by measuring dead cells at 10 uM pretreated for 4 hrs followed by H2O2 stimulation and measured after 24 hrs by Annexin V-FITC/PI staining based flow cytometry analysis (reference value: 5.10%); type: functional; parameters: scale not given: the % may be the effect or the level left; settings: time 28 hrs
PC-12 [11] = assay: Neuroprotective activity against H2O2-induced oxidative damage in rat PC-12 cells assessed as cell survival rate at 10 uM pretreated for 4 hrs followed by 800 uM H2O2 stimulation and measured after 24 hrs by MTT assay relative to control; type: functional; settings: time 28 hrs, read-out: Survival
PC-12 [12] = assay: as §1, with “late apoptotic” for “dead”, “10.9%)” for “5.10%)”; type: functional; parameters: scale not given: the % may be the effect or the level left; settings: time 28 hrs
PC-12 [13] = assay: Neuroprotective activity against H2O2-induced oxidative damage in rat PC-12 cells assessed as reduction in intracellular LDH level by measuring residual activity at 5 uM pretreated for 4 hrs followed by H2O2 stimulation and measured after 24 hrs relative to control; type: functional; settings: time 28 hrs
Danio rerio [14] = species on record: Danio rerio; assay: Cognitive improvement ability in scopolamine induced zebrafish alzheimer disease model assessed as improvement in motor activity by measuring increase in total distance of swimming at 1 mg/L pretreated with scopolamine for 30 mins followed by compound addition for 3 mins by T-maze test; type: functional, organism-based
PC-12 [15] = assay: Neuroprotective activity against H2O2-induced oxidative damage in rat PC-12 cells assessed as reduction in intracellular LDH level by measuring residual activity at 1 uM pretreated for 4 hrs followed by H2O2 stimulation and measured after 24 hrs relative to control; type: functional; settings: time 28 hrs
PC-12 [16] = assay: Induction of neurite outgrowth in rat PC-12 cells assessed as increase in neuronal protrusions at 10 uM measured after 48 hrs by light microscopic analysis; type: functional, cell-based
PC-12 [17] = assay: Induction of neurite outgrowth in rat PC-12 cells assessed as increase in number of neurites per cells at 1 to 10 uM measured after 48 hrs by light microscopic analysis; type: functional, cell-based; settings: dose 1-10 µM
Histone deacetylase 2 = Histone deacetylase 2 (Homo sapiens, UniProt Q92769); assay: Inhibition of HDAC2 (unknown origin)
Sequence of Histone deacetylase 2 (Q92769 whole entry): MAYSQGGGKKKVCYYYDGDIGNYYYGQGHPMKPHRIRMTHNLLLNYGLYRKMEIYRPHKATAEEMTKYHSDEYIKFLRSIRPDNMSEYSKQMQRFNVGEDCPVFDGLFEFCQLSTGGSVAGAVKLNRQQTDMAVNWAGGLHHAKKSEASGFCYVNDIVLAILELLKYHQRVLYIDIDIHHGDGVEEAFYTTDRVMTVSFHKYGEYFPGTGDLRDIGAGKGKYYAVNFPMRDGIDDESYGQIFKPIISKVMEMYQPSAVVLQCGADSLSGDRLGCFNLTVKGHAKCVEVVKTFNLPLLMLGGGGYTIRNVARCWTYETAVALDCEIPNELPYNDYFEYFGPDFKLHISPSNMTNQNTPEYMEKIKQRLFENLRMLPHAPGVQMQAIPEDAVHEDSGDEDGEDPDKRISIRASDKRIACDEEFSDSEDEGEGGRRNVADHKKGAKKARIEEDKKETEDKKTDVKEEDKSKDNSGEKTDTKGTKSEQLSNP

[18] = Antioxidant activity assessed as DPPH scavenging activity incubated for 0.5 hrs by absorbance based assay; type: functional
PC-12 [19] = assay: as §1, with “early apoptotic” for “dead”, “2.32%)” for “5.10%)”; type: functional; parameters: scale not given: the % may be the effect or the level left; settings: time 28 hrs
PC-12 [20] = assay: Neuroprotective activity against H2O2-induced oxidative damage in rat PC-12 cells assessed as increase in Nrf2 protein expression at 10 uM pretreated for 4 hrs followed by H2O2 stimulation and measured after 24 hrs by Western blot analysis; type: functional, cell-based; settings: time 28.0 hrs
PC-12 [21] = assay: Induction of neurite outgrowth in rat PC-12 cells assessed as increase in average neuronal length at 1 to 10 uM measured after 48 hrs by light microscopic analysis; type: functional, cell-based; settings: dose 1-10 µM
Danio rerio [22] = species on record: Danio rerio; assay: Effect on anxiety-like behavior in scopolamine induced zebrafish alzheimer disease model assessed as exploratory behavior in upper part of aquarium by measuring increase in total swimming distance at 1 mg/L pretreated with scopolamine for 30 mins followed by compound addition for 3 mins by novel tank diving test; type: functional, organism-based
[23] = target: T1, Polyamine deacetylase HDAC10 (Homo sapiens, UniProt Q969S8); assay: Inhibition of HDAC10 (unknown origin) by TR-FRET assay
T1 sequence (Q969S8 whole entry): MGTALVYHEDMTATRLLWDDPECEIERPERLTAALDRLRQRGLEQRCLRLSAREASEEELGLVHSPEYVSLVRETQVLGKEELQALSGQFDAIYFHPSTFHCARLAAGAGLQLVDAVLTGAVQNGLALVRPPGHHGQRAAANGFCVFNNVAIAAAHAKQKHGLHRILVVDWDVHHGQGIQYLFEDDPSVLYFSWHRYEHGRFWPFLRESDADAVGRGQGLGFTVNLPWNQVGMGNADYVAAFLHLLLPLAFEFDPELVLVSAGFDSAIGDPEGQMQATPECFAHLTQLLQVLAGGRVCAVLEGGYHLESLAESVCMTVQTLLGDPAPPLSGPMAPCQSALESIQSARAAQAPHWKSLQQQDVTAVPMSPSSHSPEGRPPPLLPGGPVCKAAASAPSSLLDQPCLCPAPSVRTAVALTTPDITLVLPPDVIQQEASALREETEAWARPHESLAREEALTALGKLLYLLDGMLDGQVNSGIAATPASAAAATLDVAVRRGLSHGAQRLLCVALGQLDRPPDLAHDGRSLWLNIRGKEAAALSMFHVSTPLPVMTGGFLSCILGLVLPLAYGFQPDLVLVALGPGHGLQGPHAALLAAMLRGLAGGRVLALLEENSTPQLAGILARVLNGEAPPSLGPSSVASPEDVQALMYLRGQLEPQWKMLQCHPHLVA

SH-SY5Y [24] = assay: Neuroprotective activity against 6-OHDA-induced oxidative damage in human SH-SY5Y cells assessed as increase in cell survival at 1 to 10 uM pretreated for 4 hrs followed by 100 uM 6-OHDA stimulation and measured after 24 hrs by MTT assay; type: functional, cell-based; settings: dose 1-10 µM, time 28.0 hrs
SH-SY5Y [25] = assay: Neuroprotective activity against H2O2-induced oxidative damage in human SH-SY5Y cells assessed as cell survival rate at 10 uM pretreated for 4 hrs followed by 200 uM H2O2 stimulation and measured after 24 hrs by MTT assay relative to control; type: functional; settings: time 28 hrs
PC-12 [26] = assay: Neuroprotective activity against 6-OHDA-induced oxidative damage in rat PC-12 cells assessed as increase in cell survival at 1 to 10 uM pretreated for 4 hrs followed by 500 uM 6-OHDA stimulation and measured after 24 hrs by MTT assay; type: functional, cell-based; settings: dose 1-10 µM, time 28.0 hrs

**Q.** Which results are given for `O=C(NO)c1ccc(CN2CCc3c(n(CC4CC4)c4ccc(F)cc34)C2)cc1`?
**A.** Activity (PC-12 [1]): Active; pIC50 [2]: 4.98; Activity (PC-12 [3]): 17.16 U/mg; Activity (PC-12 [4]): Dose-Dependent Effect; Activity (PC-12 [5]): 35.9%; Activity (PC-12 [6]): Dose-Dependent Effect; Activity (PC-12 [7]): Dose-Dependent Effect; Activity (PC-12 [8]): Dose-Dependent Effect; Activity (PC-12 [9]): Dose-Dependent Effect; Activity (PC-12 [10]): 1.12%; viability at 10 µM (PC-12 [11]): 89.7%; Activity (PC-12 [12]): 3.17%; Activity (PC-12 [13]): 50.2%; Activity (Danio rerio [14]): Active; Activity (PC-12 [15]): 74.3%; Activity (PC-12 [16]): Active; Activity (PC-12 [17]): Active; pIC50 (Histone deacetylase 2): 4.71; pIC50 [18]: 4.65; Activity (PC-12 [19]): 4.22%; Activity (PC-12 [20]): Active; Activity (PC-12 [21]): Active; Activity (Danio rerio [22]): Active; pIC50 [23]: 6.28; Activity (SH-SY5Y [24]): Active; Activity (SH-SY5Y [25]): 78%; Activity (PC-12 [26]): Active
